Laboratory results taken from ChEMBL document CHEMBL1250443, “Microarray-based method for monitoring yeast overexpression strains reveals small-molecule targets in TOR pathway” (Nat Chem Biol, 2006).

Assays:
[1] = Inhibition of TOR signaling in wild-type Saccharomyces cerevisiae transformed with overexpression plasmids assessed as decreased YPT11 gene expression by microarray
[2] = Inhibition of TOR signaling in wild-type Saccharomyces cerevisiae transformed with overexpression plasmids assessed as decreased RTT101 gene expression by microarray
[3] = Inhibition of TOR signaling in wild-type Saccharomyces cerevisiae transformed with overexpression plasmids assessed as decreased DCR2 gene expression by microarray
[4] = Inhibition of TOR signaling in wild-type Saccharomyces cerevisiae transformed with overexpression plasmids assessed as decreased PEX7 gene expression by microarray
[5] = Inhibition of TOR signaling in wild-type Saccharomyces cerevisiae transformed with overexpression plasmids assessed as increased VID22 gene expression by microarray
[6] = Inhibition of TOR signaling in wild-type Saccharomyces cerevisiae transformed with overexpression plasmids assessed as decreased SUE1 gene expression by microarray
[7] = Inhibition of TOR signaling in wild-type Saccharomyces cerevisiae transformed with overexpression plasmids assessed as increased SSE1 gene expression by microarray
[8] = Inhibition of TOR signaling in wild-type Saccharomyces cerevisiae transformed with overexpression plasmids assessed as decreased ERO1 gene expression by microarray
[9] = Inhibition of TOR signaling in wild-type Saccharomyces cerevisiae transformed with overexpression plasmids assessed as decreased TUL1 gene expression by microarray
[10] = Inhibition of TOR signaling in wild-type Saccharomyces cerevisiae transformed with overexpression plasmids assessed as increased SSH1 gene expression by microarray
[11] = Inhibition of TOR signaling in wild-type Saccharomyces cerevisiae transformed with overexpression plasmids assessed as increased TIF2 gene expression by microarray
[12] = Inhibition of TOR signaling in wild-type Saccharomyces cerevisiae transformed with overexpression plasmids assessed as increased NOG1 gene expression by microarray
[13] = Inhibition of TOR signaling in wild-type Saccharomyces cerevisiae transformed with overexpression plasmids assessed as decreased CDC42 gene expression by microarray
[14] = Inhibition of TOR signaling in wild-type Saccharomyces cerevisiae transformed with overexpression plasmids assessed as decreased SUT2 gene expression by microarray
[15] = Inhibition of TOR signaling in wild-type Saccharomyces cerevisiae transformed with overexpression plasmids assessed as decreased PUT4 gene expression by microarray
[16] = Inhibition of TOR signaling in wild-type Saccharomyces cerevisiae transformed with overexpression plasmids assessed as increased NCL1 gene expression by microarray
[17] = Inhibition of TOR signaling in wild-type Saccharomyces cerevisiae transformed with overexpression plasmids assessed as decreased APL4 gene expression by microarray
[18] = Inhibition of TOR signaling in wild-type Saccharomyces cerevisiae transformed with overexpression plasmids assessed as decreased MSB3 gene expression by microarray
[19] = Inhibition of TOR signaling in wild-type Saccharomyces cerevisiae transformed with overexpression plasmids assessed as increased DSL1 gene expression by microarray
[20] = Inhibition of TOR signaling in wild-type Saccharomyces cerevisiae transformed with overexpression plasmids assessed as increased SEC14 gene expression by microarray
[21] = Inhibition of TOR signaling in wild-type Saccharomyces cerevisiae transformed with overexpression plasmids assessed as decreased APM2 gene expression by microarray
[22] = Inhibition of TOR signaling in wild-type Saccharomyces cerevisiae transformed with overexpression plasmids assessed as decreased PRM6 gene expression by microarray
[23] = Inhibition of TOR signaling in wild-type Saccharomyces cerevisiae transformed with overexpression plasmids assessed as increased YLR346C gene expression by microarray
[24] = Inhibition of TOR signaling in wild-type Saccharomyces cerevisiae transformed with overexpression plasmids assessed as decreased SET4 gene expression by microarray
[25] = Inhibition of TOR signaling in wild-type Saccharomyces cerevisiae transformed with overexpression plasmids assessed as increased YOL157C gene expression by microarray
[26] = Inhibition of TOR signaling in wild-type Saccharomyces cerevisiae transformed with overexpression plasmids assessed as decreased EFR3 gene expression by microarray
[27] = Inhibition of TOR signaling in wild-type Saccharomyces cerevisiae transformed with overexpression plasmids assessed as increased LIN1 gene expression by microarray
[28] = Inhibition of TOR signaling in wild-type Saccharomyces cerevisiae transformed with overexpression plasmids assessed as decreased REH1 gene expression by microarray
[29] = Inhibition of TOR signaling in wild-type Saccharomyces cerevisiae transformed with overexpression plasmids assessed as increased YCL049C gene expression by microarray
[30] = Inhibition of TOR signaling in wild-type Saccharomyces cerevisiae transformed with overexpression plasmids assessed as decreased YCR007C gene expression by microarray
[31] = Inhibition of TOR signaling in wild-type Saccharomyces cerevisiae transformed with overexpression plasmids assessed as increased YDL063C gene expression by microarray
[32] = Inhibition of TOR signaling in wild-type Saccharomyces cerevisiae transformed with overexpression plasmids assessed as increased YLR297W gene expression by microarray
[33] = Inhibition of TOR signaling in wild-type Saccharomyces cerevisiae transformed with overexpression plasmids assessed as decreased YMR034C gene expression by microarray
Saccharomyces cerevisiae [34] = experiment: Increase of GUF1 gene expression in wild-type Saccharomyces cerevisiae transformed with overexpression plasmids by microarray; type: functional
Saccharomyces cerevisiae [35] = experiment: Increase of FMP38 gene expression in wild-type Saccharomyces cerevisiae transformed with overexpression plasmids by microarray; type: functional
Saccharomyces cerevisiae [36] = experiment: Decrease of RIM11 gene expression in wild-type Saccharomyces cerevisiae transformed with overexpression plasmids by microarray; type: functional
Saccharomyces cerevisiae [37] = experiment: Decrease of SGN1 gene expression in wild-type Saccharomyces cerevisiae transformed with overexpression plasmids by microarray; type: functional
[38] = Inhibition of TOR signaling in wild-type Saccharomyces cerevisiae transformed with overexpression plasmids assessed as increased ALD6 gene expression by microarray
[39] = Inhibition of TOR signaling in wild-type Saccharomyces cerevisiae transformed with overexpression plasmids assessed as decreased CDC16 gene expression by microarray
[40] = Inhibition of TOR signaling in wild-type Saccharomyces cerevisiae transformed with overexpression plasmids assessed as increased WHI4 gene expression by microarray
[41] = Inhibition of TOR signaling in wild-type Saccharomyces cerevisiae transformed with overexpression plasmids assessed as decreased HPA2 gene expression by microarray
[42] = Inhibition of TOR signaling in wild-type Saccharomyces cerevisiae transformed with overexpression plasmids assessed as increased APN2 gene expression by microarray
[43] = Inhibition of TOR signaling in wild-type Saccharomyces cerevisiae transformed with overexpression plasmids assessed as decreased OLE1 gene expression by microarray
[44] = Inhibition of TOR signaling in wild-type Saccharomyces cerevisiae transformed with overexpression plasmids assessed as decreased NRG1 gene expression by microarray
[45] = Inhibition of TOR signaling in wild-type Saccharomyces cerevisiae transformed with overexpression plasmids assessed as decreased HMI1 gene expression by microarray

CO[C@H]1C[C@@H]2CC[C@@H](C)[C@@](O)(O2)C(=O)C(=O)N2CCCC[C@H]2C(=O)O[C@H]([C@H](C)C[C@@H]2CC[C@@H](O)[C@H](OC)C2)CC(=O)[C@H](C)/C=C(\C)[C@@H](O)[C@@H](OC)C(=O)[C@H](C)C[C@H](C)/C=C/C=C/C=C/1C [SIROLIMUS]
fold change (FC) [1]: -3.1 | fold change (FC) [2]: -3.3 | fold change (FC) [3]: -5.9 | fold change (FC) [4]: -2.8 | fold change (FC) [5]: 2.3 | fold change (FC) [6]: -2 | fold change (FC) [7]: 11.4 | fold change (FC) [8]: -2.3 | fold change (FC) [9]: -3.7 | fold change (FC) [10]: 2.3 | fold change (FC) [11]: 2.6 | fold change (FC) [12]: 2.9 | fold change (FC) [13]: -2 | fold change (FC) [14]: -3.8 | fold change (FC) [15]: -3.1 | fold change (FC) [16]: 7.4 | fold change (FC) [17]: -2.7 | fold change (FC) [18]: -2 | fold change (FC) [19]: 2.4 | fold change (FC) [20]: 4.1 | fold change (FC) [21]: -2.4 | fold change (FC) [22]: -4.4 | fold change (FC) [23]: 2.7 | fold change (FC) [24]: -2.2 | fold change (FC) [25]: 7.1 | fold change (FC) [26]: -3.1 | fold change (FC) [27]: 2.5 | fold change (FC) [28]: -2.2 | fold change (FC) [29]: 2.1 | fold change (FC) [30]: -2.2 | fold change (FC) [31]: 2.5 | fold change (FC) [32]: 3.6 | fold change (FC) [33]: -4.4 | fold change (FC) (Saccharomyces cerevisiae [34]): -3.1 | fold change (FC) (Saccharomyces cerevisiae [35]): -3.2 | fold change (FC) (Saccharomyces cerevisiae [36]): 2.9 | fold change (FC) (Saccharomyces cerevisiae [37]): -2.1 | fold change (FC) [38]: 3 | fold change (FC) [39]: -2.3 | fold change (FC) [40]: 3.4 | fold change (FC) [41]: -2.1 | fold change (FC) [42]: 2.1 | fold change (FC) [43]: -3.2 | fold change (FC) [44]: -2.3 | fold change (FC) [45]: -2.3
